System: NOMO1
Test: cell viability relative to DMSO control; higher = less cytotoxic
Conditions: 48 h
In short: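 Viability is a per-plate percentage relative to DMSO wells, with cell-free wells as background. CellTiter-Glo One luminescence was read after 48 h at 37°C on 1536-well plates (5 μl) of NOMO1 or SEM (500 cells/well) or P12-Ichikawa (1000 cells/well) leukemia cells. The cells had been adapted for at least four passages in each medium and pin-dosed with library compounds in DMSO from 47 μM to 0.79 nM in 11 threefold steps.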

[1] = HPLM + 10% dialyzed FBS, 0.000781 µM
[2] = HPLM + 10% dialyzed FBS, 0.00234 µM
[3] = HPLM + 10% dialyzed FBS, 0.00702 µM
[4] = HPLM + 10% dialyzed FBS, 0.0211 µM
[5] = HPLM + 10% dialyzed FBS, 0.0632 µM
[6] = HPLM + 10% dialyzed FBS, 0.19 µM
[7] = HPLM + 10% dialyzed FBS, 0.569 µM
[8] = HPLM + 10% dialyzed FBS, 1.71 µM
[9] = HPLM + 10% dialyzed FBS, 5.12 µM
[10] = HPLM + 10% dialyzed FBS, 15.4 µM
[11] = HPLM + 10% dialyzed FBS, 46.1 µM
[12] = RPMI 5 mM glucose + 10% FBS, 0.000781 µM
[13] = RPMI 5 mM glucose + 10% FBS, 0.00234 µM
[14] = RPMI 5 mM glucose + 10% FBS, 0.00702 µM
[15] = RPMI 5 mM glucose + 10% FBS, 0.0211 µM
[16] = RPMI 5 mM glucose + 10% FBS, 0.0632 µM
[17] = RPMI 5 mM glucose + 10% FBS, 0.19 µM
[18] = RPMI 5 mM glucose + 10% FBS, 0.569 µM
[19] = RPMI 5 mM glucose + 10% FBS, 1.71 µM
[20] = RPMI 5 mM glucose + 10% FBS, 5.12 µM
[21] = RPMI 5 mM glucose + 10% FBS, 15.4 µM
[22] = RPMI 5 mM glucose + 10% FBS, 46.1 µM
[23] = RPMI 5 mM glucose + 10% dialyzed FBS, 0.000781 µM
[24] = RPMI 5 mM glucose + 10% dialyzed FBS, 0.00234 µM
[25] = RPMI 5 mM glucose + 10% dialyzed FBS, 0.00702 µM
[26] = RPMI 5 mM glucose + 10% dialyzed FBS, 0.0211 µM
[27] = RPMI 5 mM glucose + 10% dialyzed FBS, 0.0632 µM
[28] = RPMI 5 mM glucose + 10% dialyzed FBS, 0.19 µM
[29] = RPMI 5 mM glucose + 10% dialyzed FBS, 0.569 µM
[30] = RPMI 5 mM glucose + 10% dialyzed FBS, 1.71 µM
[31] = RPMI 5 mM glucose + 10% dialyzed FBS, 5.12 µM
[32] = RPMI 5 mM glucose + 10% dialyzed FBS, 15.4 µM
[33] = RPMI 5 mM glucose + 10% dialyzed FBS, 46.1 µM

| SMILES | cell viability [1] [%] | cell viability [2] [%] | cell viability [3] [%] | cell viability [4] [%] | cell viability [5] [%] | cell viability [6] [%] | cell viability [7] [%] | cell viability [8] [%] | cell viability [9] [%] | cell viability [10] [%] | cell viability [11] [%] | cell viability [12] [%] | cell viability [13] [%] | cell viability [14] [%] | cell viability [15] [%] | cell viability [16] [%] | cell viability [17] [%] | cell viability [18] [%] | cell viability [19] [%] | cell viability [20] [%] | cell viability [21] [%] | cell viability [22] [%] | cell viability [23] [%] | cell viability [24] [%] | cell viability [25] [%] | cell viability [26] [%] | cell viability [27] [%] | cell viability [28] [%] | cell viability [29] [%] | cell viability [30] [%] | cell viability [31] [%] | cell viability [32] [%] | cell viability [33] [%] |
| --- | --- | --- | --- | --- | --- | --- | --- | --- | --- | --- | --- | --- | --- | --- | --- | --- | --- | --- | --- | --- | --- | --- | --- | --- | --- | --- | --- | --- | --- | --- | --- | --- | --- |
| N[S+](=O)([O-])OC[C@@H]1C[C@@H](n2ccc3c(N[C@H]4CCc5ccccc54)ncnc32)C[C@@H]1O | 103 | 118 | 114 | 111 | 110 | 107 | 70.8 | 26.6 | 16.6 | 14.3 | 18.7 | 96.2 | 110 | 92.4 | 113 | 118 | 92.6 | 57.7 | 12.4 | 10.8 | 8.04 | 8.01 | 111 | 97.4 | 104 | 104 | 121 | 103 | 59.8 | 26.7 | 18.5 | 13 | 10.8 |
| CC1(C)C(N(O)C(=O)Nc2ccc(Cl)cc2)N(c2ccc(Cl)cc2)C(=O)N1CC(=O)N/N=C/C=C/c1ccc([N+](=O)[O-])o1 (stereo unspecified) | 121 | 118 | 125 | 124 | 124 | 115 | 123 | 116 | 108 | 95.8 | 50.2 | 116 | 111 | 109 | 120 | 110 | 104 | 102 | 110 | 97.4 | 104 | 75.1 | 106 | 107 | 103 | 124 | 122 | 121 | 111 | 111 | 108 | 117 | 71.3 |
| Cc1nc(Nc2n[nH]c3c2CN(C(=O)N[C@H](CN(C)C)c2ccccc2)C3(C)C)c2sccc2n1 | 89.4 | 82.7 | 70.7 | 74.1 | 65.7 | 53.8 | 54.3 | 40.2 | 41.2 | 23.1 | 2.58 | 82.6 | 85 | 91.1 | 82.6 | 71.8 | 54.2 | 53.2 | 40.5 | 38.7 | 25.6 | 2.97 | 80.3 | 86.9 | 78.3 | 72.6 | 55.8 | 58 | 60.1 | 38.9 | 40.9 | 31 | 2.28 |
| CN(C)C1=C(Br)C=C(C=C1)C\2NC3=C(\C4=C2C(=O)CC(C)(C)C4)C5=CC=CC=C5C=C3 (stereo unspecified) |  |  |  |  |  |  |  |  |  |  |  | 103 | 124 | 119 | 113 | 114 | 103 | 113 | 98 | 110 | 103 | 102 | 75.9 | 117 | 158 | 172 | 182 | 71.7 | 52.3 | 89.3 | 143 | 74.4 | 94.8 |
